In PubChem BioAssay (NCI) one finds TGI data, which are given here for eleven molecules.

Test systems include OVCAR-4 ovarian; UO-31 renal; OVCAR-5 ovarian; IGROV1 ovarian; HT29 colon; SR leukemia; PC-3 prostate; CCRF-CEM leukemia; NCI-H522 lung; KM12 colon; SW-620 colon.
Test in all cases: inhibition of tumour cell growth, NCI panel, 48 h

Molecules are shown by their SMILES.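 The compound was tested at five concentrations on cells cultured in 96-well plates, with a 48-hour exposure period. TGI: concentration producing complete growth inhibition.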

As for `C=CCOC(=O)N1c2ccc(O)cc2[C@@]23O[C@@]24[C@@H]1C#C/C=C\C#C[C@]3(O)C(OC)(OC)C[C@@H]4C`, the TGI in the assay on OVCAR-4 ovarian is 47.2 µM; with UO-31 renal, > 100 µM; in the assay with OVCAR-5 ovarian, > 100 µM; with IGROV1 ovarian, 80.8 µM; in the assay on HT29 colon it was 49.8 µM; in the assay on SR leukemia, 62.2 µM. For the same molecule, the TGI was 77.6 µM with PC-3 prostate; 76.8 µM in the assay with CCRF-CEM leukemia; 74.6 µM with NCI-H522 lung; 69.7 µM in the assay on KM12 colon; > 100 µM in the assay with SW-620 colon.
Consider `CCC(CC)(CO)CNc1cc(Cl)nc(N)n1`, for which the TGI in the assay on OVCAR-4 ovarian, in the assay on UO-31 renal, in the assay with OVCAR-5 ovarian, with IGROV1 ovarian, in the assay with HT29 colon and in the assay with SR leukemia was > 100 µM each time. The TGI in the assay on PC-3 prostate, with CCRF-CEM leukemia, with NCI-H522 lung, in the assay with KM12 colon and with SW-620 colon was > 100 µM in each case.
Consider `O=c1[nH]nc(Cc2ccccc2)n1/N=C/c1cccnc1`, for which the TGI in the assay on OVCAR-4 ovarian, in the assay on UO-31 renal, in the assay with OVCAR-5 ovarian, in the assay on IGROV1 ovarian, in the assay with HT29 colon and with SR leukemia was > 100 µM each time. In addition, the TGI in the assay on PC-3 prostate, in the assay with CCRF-CEM leukemia, in the assay on NCI-H522 lung, in the assay on KM12 colon and in the assay on SW-620 colon was > 100 µM throughout.
On to `Cc1c(C)c(C)c(-n2c(=O)n(C)c(=O)n2-c2cc(C(C)(C)C)cc(C(C)(C)C)c2O)c(C)c1C`, for which the TGI was 21.4 µM in the assay on OVCAR-4 ovarian; 14.1 µM in the assay with UO-31 renal; 26.9 µM with OVCAR-5 ovarian; 22 µM with IGROV1 ovarian; 15.9 µM in the assay with HT29 colon; > 46.9 µM in the assay on SR leukemia. The TGI in the assay on PC-3 prostate was 12 µM; in the assay with CCRF-CEM leukemia it was 30.8 µM; in the assay with NCI-H522 lung, 14.6 µM; in the assay on KM12 colon it was > 45.3 µM; in the assay on SW-620 colon, 28.4 µM.
`O=[N+]([O-])c1cc2ccc(N(CCO)CCO)nc2nc1N(CCO)CCO`: the TGI in the assay on OVCAR-4 ovarian, in the assay with UO-31 renal, in the assay with OVCAR-5 ovarian, in the assay on IGROV1 ovarian, in the assay with HT29 colon and in the assay on SR leukemia was > 100 µM each time. The TGI with PC-3 prostate, in the assay on CCRF-CEM leukemia, in the assay on NCI-H522 lung, in the assay with KM12 colon and in the assay with SW-620 colon was > 100 µM throughout.
As to `Cc1ccc(S(=O)(=O)N/N=C2\CC3CC4CCC2C4C3)cc1` (stereo unspecified), the TGI with OVCAR-4 ovarian, with UO-31 renal, in the assay with OVCAR-5 ovarian, with IGROV1 ovarian, in the assay on HT29 colon and with SR leukemia was > 100 µM throughout. Also, the TGI in the assay on PC-3 prostate, in the assay on CCRF-CEM leukemia, in the assay with NCI-H522 lung, in the assay with KM12 colon and in the assay with SW-620 colon was > 100 µM in each case.
Take `O[C@@H]1CCC[C@@H]2NC[C@@H](c3ccc4c(c3)OCO4)[C@H]12`: the TGI with OVCAR-4 ovarian, in the assay on UO-31 renal, with OVCAR-5 ovarian, in the assay on IGROV1 ovarian, in the assay on HT29 colon and with SR leukemia was > 100 µM each time. For the same molecule, the TGI in the assay with PC-3 prostate, with CCRF-CEM leukemia, in the assay on NCI-H522 lung, in the assay with KM12 colon and in the assay on SW-620 colon was > 100 µM throughout.
As to `O=C(OC1CN2CCC1CC2)N(c1ccccc1)c1ccccc1` (stereo unspecified), the TGI with OVCAR-4 ovarian, in the assay on UO-31 renal, with OVCAR-5 ovarian, with IGROV1 ovarian, with HT29 colon and in the assay with SR leukemia was > 100 µM throughout. In addition, the TGI with PC-3 prostate, with CCRF-CEM leukemia and with NCI-H522 lung was > 100 µM each time.
For `O=[N+]([O-])c1cc(F)ccc1S(=O)(=O)c1ccccc1`, the TGI in the assay on OVCAR-4 ovarian, with OVCAR-5 ovarian, with IGROV1 ovarian, in the assay with HT29 colon, with SR leukemia and in the assay with PC-3 prostate was > 10 µM throughout. In addition, the TGI with CCRF-CEM leukemia is > 10 µM; in the assay on NCI-H522 lung, 5.34 µM; in the assay with KM12 colon, > 10 µM; in the assay on SW-620 colon, > 10 µM.
For the molecule `O=c1[nH]c2nccn2c2c1SCCN2`, the TGI in the assay on OVCAR-4 ovarian, in the assay on OVCAR-5 ovarian, with IGROV1 ovarian, in the assay on HT29 colon, in the assay with SR leukemia and in the assay with PC-3 prostate was > 100 µM throughout. Further, the TGI in the assay with CCRF-CEM leukemia, in the assay with NCI-H522 lung, in the assay with KM12 colon and with SW-620 colon was > 100 µM throughout.
As to `Cc1nc2ccc(F)cc2c(Cl)c1CCCl`, the TGI is > 100 µM in the assay with OVCAR-4 ovarian; > 100 µM with UO-31 renal; > 100 µM in the assay with IGROV1 ovarian; > 100 µM with HT29 colon; 44.9 µM with SR leukemia; > 100 µM in the assay with PC-3 prostate. Also, the TGI in the assay on CCRF-CEM leukemia was 48.4 µM; with NCI-H522 lung, 93.6 µM; in the assay with KM12 colon it was > 100 µM; in the assay on SW-620 colon, > 100 µM.
